Results as given in patent publication US20230339878A1, “SLC26A3 INHIBITORS AND USE THEREOF” (THE REGENTS OF THE UNIVERSITY OF CALIFORNIA, priority 2018, published 2023).
“Also recorded” adds a separate entry of the source.

Key:
[1] = system: mouse distal colonic closed loops; assay: Closed distal colonic loop fluid absorption in mice; format: in vivo; conditions: 10 µM intraluminal, 60 min
Protocol: (§1) Female CD1 mice (age 8-10 weeks) were given free access to Pedialyte (per liter: Na^+ 45 mEq, Cl^- 35 mEq, K^+ 20 mEq, dextrose 25 g; Abbott, Abbot Park, IL) but not solid food for 48 h before experiments. Mice were treated with 500 µL mineral oil once a day rectally (last dose 12 h before surgeries) during this period to evacuate the colon. Closed intestinal loops were isolated as described. Mice were anesthetized with isoflurane and body temperature was maintained during surgery at 36-38° C. using a heating pad. A small abdominal incision was made to expose the distal colon, and one closed distal colonic loop (length 1.5-2 cm) was isolated with sutures in each mouse. Loops were injected with 100 µL phosphate-buffered saline (PBS, pH: 7.4, in mM: 137 NaCl, 2.7 KCl, 8 Na2HPO4, 1.8 KH2PO4, 1 CaCl2, 0.5 MgCl2) without and with 10 µM Compound A1 and/or 10 µM tenapanor (MedChemExpress, Monmouth Junction, NJ). The abdominal incision was closed with sutures, and mice were allowed to recover from anesthesia. Colonic loops were removed at 0 and 60 min (in separate mice) and loop length and weight were measured to quantify fluid absorption. Luminal fluid was emptied with a syringe and pH was measured immediately using AB15 pH Meter (Thermo Fisher Scientific, South San Francisco, CA). In separate studies, mid-jejunal loops (length 2-3 cm, 3-4 loops per mouse) were isolated as described above, injected with 100 µL PBS without or with 10 µM Compound A1 and/or 10 µM tenapanor, and excised at 0 and 30 min to measure loop length and weight.
Closed intestinal loop studies in mice were done to study effects of Compound A1 on fluid absorption. […] Changes in luminal pH were also determined as a semi-quantitative measure of slc26a3-facilitated HCO3^- secretion / C1^- absorption, with slc26a3 inhibition predicted to reduce luminal fluid alkalinization. For these experiments, a phosphate-buffered solution (PBS) without HCO3^- / CO2 was used to avoid confounding effects of luminal carbonic anhydrases. […] Administration of the NHE3 (Na^+/H^+ exchanger 3) inhibitor tenapanor had no effect on weight/length ratio or luminal pH in distal colonic loops.

[2] = system: mouse mid-jejunal closed loops; assay: Closed mid-jejunal loop fluid absorption in mice; format: in vivo; conditions: 10 µM intraluminal, 30 min
Protocol: as §1

[3] = system: loperamide-treated wild-type mice; assay: Loperamide-induced constipation model in wild-type mice; format: in vivo; conditions: 5 mg/kg oral gavage 1 hour before loperamide, wild-type mice
Protocol: Female CD1 mice (age 8-10 weeks) were administered loperamide (0.3 mg/kg, intraperitoneally, Sigma-Aldrich) to produce constipation. Compound A1 (DRAinh-A250) (5 mg/kg, in saline containing vehicle (5% DMSO and 10% Kolliphor HS 15; Sigma-Aldrich)), tenapanor (5 mg/kg, in vehicle), both compounds (5 mg/kg each, in vehicle), or vehicle alone were administered by oral gavage 1 hour before loperamide. After loperamide injection, mice were placed individually in metabolic cages with ad libitum access to food and water. Stool samples were collected for 3 h, and total stool weight and number of fecal pellets were quantified. To measure stool water content, stool samples were dried at 80° C. for 24 h and water content was calculated as [wet weight-dry weight]/wet weight. Similar studies were done in cystic fibrosis (CF) mice (ΔF508 homozygous) lacking functional CFTR.
Constipation Model in MiceDRAinh-A260 and DRAinh-A270 were tested in a loperamide-induced constipation model in mice. Female CD1 mice (age 8-10 weeks) were administered loperamide (0.3 mg/kg, intraperitoneally, in 5% ethanol in PBS, 0.1 mg/mL final concentration) to produce constipation and vehicle in control mice. DRAinh-A260 (5 mg/kg, in saline with 5% DMSO and 10% Kolliphor HS 15) or DRAinh-A270 (1, 3 or 10 mg/kg, in PBS with 5% DMSO and 20% (2- hydroxypropyl)-β-cyclodextrin) or vehicle alone were administered by oral gavage 1 hour before loperamide (FIG. 11A). After loperamide injection, mice were placed individually in metabolic cages with free access to food and water. Stool samples were collected for 3 hours, and total stool weight and number of fecal pellets were quantified. To measure stool water content, stool samples were dried at 80° C. for 24 hours and water content was calculated as [wet weight-dry weight]/wet weight.

NHE3 = target: T1, NHE3 (Homo sapiens, UniProt P48764); conditions: Phase 3, IBS-C, treated group (placebo 18.7 %); cited from earlier work
T1 sequence (P48764 26-834): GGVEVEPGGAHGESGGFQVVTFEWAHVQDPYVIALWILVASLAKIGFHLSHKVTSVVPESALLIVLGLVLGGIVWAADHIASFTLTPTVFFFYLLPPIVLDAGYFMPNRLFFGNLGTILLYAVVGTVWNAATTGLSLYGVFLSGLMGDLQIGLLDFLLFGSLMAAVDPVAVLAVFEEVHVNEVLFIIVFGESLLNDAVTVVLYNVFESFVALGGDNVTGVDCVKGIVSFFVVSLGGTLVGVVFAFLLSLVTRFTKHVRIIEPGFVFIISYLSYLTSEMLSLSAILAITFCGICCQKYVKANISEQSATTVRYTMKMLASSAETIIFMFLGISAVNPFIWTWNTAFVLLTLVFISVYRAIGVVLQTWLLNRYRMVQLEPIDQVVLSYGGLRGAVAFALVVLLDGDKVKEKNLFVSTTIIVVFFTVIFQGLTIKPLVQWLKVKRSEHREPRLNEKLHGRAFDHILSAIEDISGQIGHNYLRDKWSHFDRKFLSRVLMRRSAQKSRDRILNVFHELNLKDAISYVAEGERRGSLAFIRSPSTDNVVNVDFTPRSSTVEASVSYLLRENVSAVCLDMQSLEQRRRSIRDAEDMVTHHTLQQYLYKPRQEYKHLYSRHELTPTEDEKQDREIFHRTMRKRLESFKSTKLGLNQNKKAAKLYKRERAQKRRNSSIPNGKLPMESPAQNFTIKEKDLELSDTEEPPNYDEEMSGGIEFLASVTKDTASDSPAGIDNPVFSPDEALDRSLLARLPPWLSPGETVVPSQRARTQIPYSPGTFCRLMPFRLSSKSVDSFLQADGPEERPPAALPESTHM

In the case of `CN1Cc2c(Cl)cc(Cl)cc2[C@H](c2cccc(S(=O)(=O)NCCOCCOCCNC(=O)NCCCCNC(=O)NCCOCCOCCNS(=O)(=O)c3cccc([C@@H]4CN(C)Cc5c(Cl)cc(Cl)cc54)c3)c2)C1` [tenapanor, reference compound], the “loop weight/length ratio (fluid absorption), distal colonic loops” value [1] is reported as “had no effect”, the “luminal pH, distal colonic loops” value [1] is reported as “had no effect” and the “loop weight/length ratio (fluid absorption), mid-jejunal loops” value [2] is reported as “fluid absorption was abolished; also recorded: blocked absorption in jejunal”. The “luminal fluid pH, mid-jejunal loops” value [2] was “preventing acidification and producing slight alkalinization”, the “three-hour stool weight, number of pellets and stool water content” value [3] was “comparably reduced signs of constipation” and the “three-hour stool weight, number of pellets and stool water content” value ([3]; listed as Tenapanor) was “partially prevented”. For the same molecule, the “combined pain and stool pattern response rate” value (NHE3) was 27%.
